Measured values as given in the supplement of paper PMC13380429.

Key:
Conditions in all cases: 72 h
Calu-3 [1] = assay: relative viability EC50 (midpoint between 100% and the lowest measured viability); higher = less toxic
Vero E6 [2] = assay: as above
U2OS [3] = assay: as above
HepG2 [4] = assay: as above
Caco-2 [5] = assay: as above
Calu-3 [6] = assay: drug sensitivity score (DSS) for viability; higher = more toxic; extreme values may be limits of the assay
Vero E6 [7] = assay: as above
U2OS [8] = assay: as above
HepG2 [9] = assay: as above
Caco-2 [10] = assay: as above
Calu-3 [11] = assay: cell viability relative to DMSO; higher = less toxic
Vero E6 [12] = assay: as above
U2OS [13] = assay: as above
HepG2 [14] = assay: as above
Caco-2 [15] = assay: as above

Row | Structure (SMILES) | relative viability EC50 (Calu-3 [1]) [µM] | relative viability EC50 (Vero E6 [2]) [µM] | relative viability EC50 (U2OS [3]) [µM] | relative viability EC50 (HepG2 [4]) [µM] | relative viability EC50 (Caco-2 [5]) [µM] | drug sensitivity score (Calu-3 [6]) | drug sensitivity score (Vero E6 [7]) | drug sensitivity score (U2OS [8]) | drug sensitivity score (HepG2 [9]) | drug sensitivity score (Caco-2 [10]) | cell viability (Calu-3 [11]; 1 nM) [%] | cell viability (Calu-3 [11]; 10 nM) [%] | cell viability (Calu-3 [11]; 100 nM) [%] | cell viability (Calu-3 [11]; 1000 nM) [%] | cell viability (Calu-3 [11]; 10000 nM) [%] | cell viability (Vero E6 [12]; 1 nM) [%] | cell viability (Vero E6 [12]; 10 nM) [%] | cell viability (Vero E6 [12]; 100 nM) [%] | cell viability (Vero E6 [12]; 1000 nM) [%] | cell viability (Vero E6 [12]; 10000 nM) [%] | cell viability (U2OS [13]; 1 nM) [%] | cell viability (U2OS [13]; 10 nM) [%] | cell viability (U2OS [13]; 100 nM) [%] | cell viability (U2OS [13]; 1000 nM) [%] | cell viability (U2OS [13]; 10000 nM) [%] | cell viability (HepG2 [14]; 1 nM) [%] | cell viability (HepG2 [14]; 10 nM) [%] | cell viability (HepG2 [14]; 100 nM) [%] | cell viability (HepG2 [14]; 1000 nM) [%] | cell viability (HepG2 [14]; 10000 nM) [%] | cell viability (Caco-2 [15]; 1 nM) [%] | cell viability (Caco-2 [15]; 10 nM) [%] | cell viability (Caco-2 [15]; 100 nM) [%] | cell viability (Caco-2 [15]; 1000 nM) [%] | cell viability (Caco-2 [15]; 10000 nM) [%]
1 | O=C1N(c2ccccc2)c2ccccc2C1(Cc1ccncc1)Cc1ccncc1 [linopirdine] | > 10 | > 10 | > 10 | > 10 | > 10 | 0 | 0 | 0 | 0 | 0 | 92.4 | 98.5 | 98.9 | 103 | 97.2 | 106 | 97.3 | 106 | 96.9 | 99.2 | 94.6 | 101 | 98.7 | 103 | 98.7 | 111 | 102 | 94.9 | 105 | 102 | 91.4 | 93.2 | 88.3 | 98.8 | 93.1
2 | CC(=O)N(c1onc(C)c1C)S(=O)(=O)c1ccc(N)cc1 [sulfisoxazole-acetyl] | > 10 | > 10 | > 10 | > 10 | > 10 | 0 | 0 | 0 | 0 | 0 | 96.7 | 102 | 93.6 | 102 | 102 | 104 | 107 | 103 | 96.9 | 98.8 | 101 | 97.5 | 101 | 97.7 | 98.7 | 96.9 | 105 | 114 | 103 | 97.4 | 109 | 106 | 110 | 102 | 90.9
3 | O=C(COc1cccc2c(=O)[nH]ccc12)c1ccccc1 [UPF-1069] | > 10 | > 10 | > 10 | > 10 | > 10 | 0 | 0 | 0 | 0.1 | 0.8 | 98.2 | 101 | 92.9 | 96.8 | 90.2 | 94.2 | 108 | 107 | 93.8 | 94.6 | 102 | 101 | 95.1 | 103 | 93.9 | 97 | 95.6 | 98.5 | 89 | 88 | 95.6 | 92.5 | 94.8 | 87 | 84.5
4 | O=C(O)CCCCC(CCSCc1ccccc1)SCc1ccccc1 (centres undefined) [CPI-613] | > 10 | > 10 | > 10 | > 10 |  | 0 | 0 | 0 | 0 |  | 103 | 104 | 97.6 | 106 | 101 | 98.7 | 94.8 | 97.8 | 95.7 | 100 | 100 | 96.7 | 95.5 | 96.4 | 112 | 97.5 | 102 | 97.2 | 100 | 104 |  |  |  |  | 
5 | CCCC(=O)O[C@]1(C(=O)CCl)[C@@H](C)C[C@H]2[C@@H]3CCC4=CC(=O)C=C[C@]4(C)[C@@]3(F)C(=O)C[C@@]21C [clobetasone-butyrate] | > 10 | > 10 | > 10 | > 10 |  | 0 | 0 | 0 | 0.3 | 1.7 | 96.1 | 112 | 97.3 | 100 | 89 | 108 | 102 | 109 | 98.5 | 93 | 93.1 | 96.1 | 91.8 | 95 | 87.9 | 96.2 | 104 | 97.9 | 90.3 | 88.5 | 94.7 | 103 | 94.1 | 94.3 | 74.6
6 | CCCc1c(-c2ccc(O)cc2)nn(-c2ccc(O)cc2)c1-c1ccc(O)cc1 [PPT] | > 10 | > 10 | > 10 | > 10 |  | 0 | 0 | 0 | 0 | 2.1 | 94.8 | 104 | 97.4 | 106 | 116 | 99.2 | 98.9 | 98.7 | 99.6 | 96 | 104 | 102 | 101 | 98.9 | 98.9 | 100 | 99.2 | 96 | 97 | 99.8 | 102 | 100 | 104 | 91 | 75
7 | COc1ccc(C(=O)Nc2sc3c(c2C(N)=O)CCCC3)cc1OC [TCS-359] | > 10 | > 10 | > 10 | > 10 |  | 0 | 0 | 0 | 0 |  | 100 | 93.4 | 101 | 91.1 | 105 | 108 | 105 | 96 | 98.3 | 98.3 | 96.8 | 99 | 102 | 98.4 | 105 | 94.4 | 102 | 89.6 | 97.6 | 94.5 |  |  |  |  | 
